How the values were obtained:
Assay type in all cases: cell-based, mouse
[1] = tested on: α7 integrin (LacZ reporter in α7βgal+/− myoblasts); assay: Myoblast α7+/LacZ integrin FDG assay (Burkin assay in myoblasts, 96-well); conditions: 96-well; for Burkin Assay in Myoblasts, signal relative to DMSO: α7+/LacZ myoblasts; for Burkin Assay in Myoblasts, value relative to DMSO: SU9516 analogs, N=3-6
[2] = tested on: β-galactosidase in CMV-LacZ C2C12 myoblasts; assay: CMV-LacZ secondary screen in C2C12 myoblasts (β-Gal stabilizing assay); conditions: for CMV-LACZ in Myoblasts (β-galactosidase activity relative to DMSO): CMV-LacZ C2C12 myoblasts; for CMV-LACZ in Myoblasts, value relative to DMSO: SU9516 analogs, C2C12 CMV-LacZ, N=2
Method in brief: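 A secondary screen identifies compounds that stabilize β-gal independently of the native promoter, using CMV-LacZ C2C12 cells. Curves span 0.5–40 μM at six levels, in duplicate.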

[3] = tested on: α7 integrin (LacZ reporter in α7+/LacZ myotubes); assay: Myotube α7 integrin FDG assay (Burkin assay in myotubes, 96-well); conditions: for Burkin Assay in Myotubes, value relative to DMSO: SU9516 analogs, 96-well, N=3-6
[4] = tested on: β-galactosidase in CMV-LacZ C2C12 myotubes; assay: CMV-LacZ secondary screen in C2C12 myotubes (β-Gal stabilizing assay); conditions: for CMV-LACZ in Myotubes, signal relative to DMSO: C2C12 CMV-LacZ myotubes, fold relative to DMSO; for CMV-LACZ in Myotubes, value relative to DMSO: SU9516 analogs, C2C12 CMV-LacZ, N=2
Method in brief: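 β-gal stabilization was measured in C2C12 myoblasts or myotubes stably transfected with a CMV-driven LacZ construct, using the FDG β-gal assay. Compounds were tested in dose-response at 0.5, 1, 5, 10, 20 and 40 μM, with two replicates per point.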

Cc1ccccc1S(=O)(=O)N1C[C@H]2CON(C)[C@H]2C[C@H]1c1cccc(-c2ccccc2)c1 [MLS002694363-01]
Burkin Assay in Myoblasts, signal relative to DMSO ([1]; 0.5 uM): 1.062 | Burkin Assay in Myoblasts, signal relative to DMSO ([1]; 1 uM): 1.061 | Burkin Assay in Myoblasts, signal relative to DMSO ([1]; 5 uM): 1.045 | Burkin Assay in Myoblasts, signal relative to DMSO ([1]; 10 uM): 1.09 | Burkin Assay in Myoblasts, signal relative to DMSO ([1]; 20 uM): 0.7581 | Burkin Assay in Myoblasts, signal relative to DMSO ([1]; 40 uM): 0.7066 | CMV-LACZ in Myoblasts (β-galactosidase activity relative to DMSO) ([2]; 0.5 uM): 1.1110 | CMV-LACZ in Myoblasts (β-galactosidase activity relative to DMSO) ([2]; 1 uM): 1.2840 | CMV-LACZ in Myoblasts (β-galactosidase activity relative to DMSO) ([2]; 5 uM): 0.7616 | CMV-LACZ in Myoblasts (β-galactosidase activity relative to DMSO) ([2]; 10 uM): 1.0392 | CMV-LACZ in Myoblasts (β-galactosidase activity relative to DMSO) ([2]; 20 uM): 1.0123 | CMV-LACZ in Myoblasts (β-galactosidase activity relative to DMSO) ([2]; 40 uM): 0.5698 | Burkin Assay in Myotubes, α7 integrin LacZ reporter signal relative to DMSO ([3]; 0.5 uM): 0.9909 | Burkin Assay in Myotubes, α7 integrin LacZ reporter signal relative to DMSO ([3]; 1 uM): 1.01 | Burkin Assay in Myotubes, α7 integrin LacZ reporter signal relative to DMSO ([3]; 5 uM): 0.9178 | Burkin Assay in Myotubes, α7 integrin LacZ reporter signal relative to DMSO ([3]; 10 uM): 0.8787 | Burkin Assay in Myotubes, α7 integrin LacZ reporter signal relative to DMSO ([3]; 20 uM): 0.6694 | Burkin Assay in Myotubes, α7 integrin LacZ reporter signal relative to DMSO ([3]; 40 uM): 0.4108 | CMV-LACZ in Myotubes, signal relative to DMSO ([4]; 0.5 uM): 1.0695 | CMV-LACZ in Myotubes, signal relative to DMSO ([4]; 1 uM): 1.1800 | CMV-LACZ in Myotubes, signal relative to DMSO ([4]; 5 uM): 1.1420 | CMV-LACZ in Myotubes, signal relative to DMSO ([4]; 10 uM): 0.9775 | CMV-LACZ in Myotubes, signal relative to DMSO ([4]; 20 uM): 0.9870 | CMV-LACZ in Myotubes, signal relative to DMSO ([4]; 40 uM): 0.7460

Cc1cccc(C)c1NCC(=O)N1CCN(Cc2ccccc2)CC1.Cl [MLS001176153-01]
Burkin Assay in Myoblasts, signal relative to DMSO ([1]; 0.5 uM): 1.06 | Burkin Assay in Myoblasts, signal relative to DMSO ([1]; 1 uM): 1.045 | Burkin Assay in Myoblasts, signal relative to DMSO ([1]; 5 uM): 0.9185 | Burkin Assay in Myoblasts, signal relative to DMSO ([1]; 10 uM): 0.8767 | Burkin Assay in Myoblasts, signal relative to DMSO ([1]; 20 uM): 1.145 | Burkin Assay in Myoblasts, signal relative to DMSO ([1]; 40 uM): 1.12 | CMV-LACZ in Myoblasts (β-galactosidase activity relative to DMSO) ([2]; 0.5 uM): 1.2729 | CMV-LACZ in Myoblasts (β-galactosidase activity relative to DMSO) ([2]; 1 uM): 1.4588 | CMV-LACZ in Myoblasts (β-galactosidase activity relative to DMSO) ([2]; 5 uM): 0.8976 | CMV-LACZ in Myoblasts (β-galactosidase activity relative to DMSO) ([2]; 10 uM): 0.9140 | CMV-LACZ in Myoblasts (β-galactosidase activity relative to DMSO) ([2]; 20 uM): 0.9322 | CMV-LACZ in Myoblasts (β-galactosidase activity relative to DMSO) ([2]; 40 uM): 1.0763 | Burkin Assay in Myotubes, α7 integrin LacZ reporter signal relative to DMSO ([3]; 0.5 uM): 1.007 | Burkin Assay in Myotubes, α7 integrin LacZ reporter signal relative to DMSO ([3]; 1 uM): 1.027 | Burkin Assay in Myotubes, α7 integrin LacZ reporter signal relative to DMSO ([3]; 5 uM): 0.9538 | Burkin Assay in Myotubes, α7 integrin LacZ reporter signal relative to DMSO ([3]; 10 uM): 1.106 | Burkin Assay in Myotubes, α7 integrin LacZ reporter signal relative to DMSO ([3]; 20 uM): 0.9238 | Burkin Assay in Myotubes, α7 integrin LacZ reporter signal relative to DMSO ([3]; 40 uM): 0.9818 | CMV-LACZ in Myotubes, signal relative to DMSO ([4]; 0.5 uM): 0.8316 | CMV-LACZ in Myotubes, signal relative to DMSO ([4]; 1 uM): 0.9832 | CMV-LACZ in Myotubes, signal relative to DMSO ([4]; 5 uM): 0.7944 | CMV-LACZ in Myotubes, signal relative to DMSO ([4]; 10 uM): 0.9388 | CMV-LACZ in Myotubes, signal relative to DMSO ([4]; 20 uM): 1.0256 | CMV-LACZ in Myotubes, signal relative to DMSO ([4]; 40 uM): 1.0878

Cc1ccc2c(c1)/C(=C/c1ccccc1C)C(=O)N2 [MLS001202402-01]
Burkin Assay in Myoblasts, value relative to DMSO ([1]; 0.5 uM): 1.051 | Burkin Assay in Myoblasts, value relative to DMSO ([1]; 1 uM): 0.9034 | Burkin Assay in Myoblasts, value relative to DMSO ([1]; 5 uM): 0.9255 | Burkin Assay in Myoblasts, value relative to DMSO ([1]; 10 uM): 1.08 | Burkin Assay in Myoblasts, value relative to DMSO ([1]; 20 uM): 0.6481 | Burkin Assay in Myoblasts, value relative to DMSO ([1]; 40 uM): 0.325 | CMV-LACZ in Myoblasts, value relative to DMSO ([2]; 0.5 uM): 1.0546 | CMV-LACZ in Myoblasts, value relative to DMSO ([2]; 1 uM): 1.0106 | CMV-LACZ in Myoblasts, value relative to DMSO ([2]; 5 uM): 0.8771 | CMV-LACZ in Myoblasts, value relative to DMSO ([2]; 10 uM): 0.7598 | CMV-LACZ in Myoblasts, value relative to DMSO ([2]; 20 uM): 0.7204 | CMV-LACZ in Myoblasts, value relative to DMSO ([2]; 40 uM): 0.4819 | Burkin Assay in Myotubes, value relative to DMSO ([3]; 0.5 uM): 0.9628 | Burkin Assay in Myotubes, value relative to DMSO ([3]; 1 uM): 0.8962 | Burkin Assay in Myotubes, value relative to DMSO ([3]; 5 uM): 0.9629 | Burkin Assay in Myotubes, value relative to DMSO ([3]; 10 uM): 1.0295 | Burkin Assay in Myotubes, value relative to DMSO ([3]; 20 uM): 0.5907 | Burkin Assay in Myotubes, value relative to DMSO ([3]; 40 uM): 0.3717 | CMV-LACZ in Myotubes, value relative to DMSO ([4]; 0.5 uM): 0.9200 | CMV-LACZ in Myotubes, value relative to DMSO ([4]; 1 uM): 0.8695 | CMV-LACZ in Myotubes, value relative to DMSO ([4]; 5 uM): 0.9237 | CMV-LACZ in Myotubes, value relative to DMSO ([4]; 10 uM): 0.8015 | CMV-LACZ in Myotubes, value relative to DMSO ([4]; 20 uM): 0.8847 | CMV-LACZ in Myotubes, value relative to DMSO ([4]; 40 uM): 0.8129

CCN(CC)CCNC(=O)c1c(C)[nH]c(/C=C2\C(=O)Nc3ccc(F)cc32)c1C [NCGC00164631-04]
Burkin Assay in Myoblasts, value relative to DMSO ([1]; 0.5 uM): 1.023 | Burkin Assay in Myoblasts, value relative to DMSO ([1]; 1 uM): 1.011 | Burkin Assay in Myoblasts, value relative to DMSO ([1]; 5 uM): 0.529 | Burkin Assay in Myoblasts, value relative to DMSO ([1]; 10 uM): 0.08696 | Burkin Assay in Myoblasts, value relative to DMSO ([1]; 20 uM): 0.01476 | Burkin Assay in Myoblasts, value relative to DMSO ([1]; 40 uM): 0.01361 | CMV-LACZ in Myoblasts, value relative to DMSO ([2]; 0.5 uM): 0.8225 | CMV-LACZ in Myoblasts, value relative to DMSO ([2]; 5 uM): 0.6842 | CMV-LACZ in Myoblasts, value relative to DMSO ([2]; 10 uM): 0.4405 | CMV-LACZ in Myoblasts, value relative to DMSO ([2]; 20 uM): 0.2323 | CMV-LACZ in Myoblasts, value relative to DMSO ([2]; 40 uM): 0.1827 | Burkin Assay in Myotubes, value relative to DMSO ([3]; 0.5 uM): 0.9761 | Burkin Assay in Myotubes, value relative to DMSO ([3]; 1 uM): 0.9998 | Burkin Assay in Myotubes, value relative to DMSO ([3]; 5 uM): 0.7739 | Burkin Assay in Myotubes, value relative to DMSO ([3]; 10 uM): 0.2132 | Burkin Assay in Myotubes, value relative to DMSO ([3]; 20 uM): 0.08218 | Burkin Assay in Myotubes, value relative to DMSO ([3]; 40 uM): 0.08093 | CMV-LACZ in Myotubes, value relative to DMSO ([4]; 0.5 uM): 1.1336 | CMV-LACZ in Myotubes, value relative to DMSO ([4]; 1 uM): 0.9164 | CMV-LACZ in Myotubes, value relative to DMSO ([4]; 5 uM): 0.8803 | CMV-LACZ in Myotubes, value relative to DMSO ([4]; 10 uM): 0.3804 | CMV-LACZ in Myotubes, value relative to DMSO ([4]; 20 uM): 0.6490 | CMV-LACZ in Myotubes, value relative to DMSO ([4]; 40 uM): 0.6690

Cc1ccc2c(c1)/C(=C/c1ccco1)C(=O)N2 [MLS000682750-01]
Burkin Assay in Myoblasts, signal relative to DMSO ([1]; 0.5 uM): 1.203 | Burkin Assay in Myoblasts, signal relative to DMSO ([1]; 1 uM): 1.02 | Burkin Assay in Myoblasts, signal relative to DMSO ([1]; 5 uM): 1.229 | Burkin Assay in Myoblasts, signal relative to DMSO ([1]; 10 uM): 1.076 | Burkin Assay in Myoblasts, signal relative to DMSO ([1]; 20 uM): 1.124 | Burkin Assay in Myoblasts, signal relative to DMSO ([1]; 40 uM): 1.103 | CMV-LACZ in Myoblasts (β-galactosidase activity relative to DMSO) ([2]; 0.5 uM): 0.9679 | CMV-LACZ in Myoblasts (β-galactosidase activity relative to DMSO) ([2]; 1 uM): 1.0467 | CMV-LACZ in Myoblasts (β-galactosidase activity relative to DMSO) ([2]; 5 uM): 0.8717 | CMV-LACZ in Myoblasts (β-galactosidase activity relative to DMSO) ([2]; 10 uM): 0.9934 | CMV-LACZ in Myoblasts (β-galactosidase activity relative to DMSO) ([2]; 20 uM): 1.1433 | CMV-LACZ in Myoblasts (β-galactosidase activity relative to DMSO) ([2]; 40 uM): 1.0404 | Burkin Assay in Myotubes, α7 integrin LacZ reporter signal relative to DMSO ([3]; 0.5 uM): 0.9957 | Burkin Assay in Myotubes, α7 integrin LacZ reporter signal relative to DMSO ([3]; 1 uM): 0.9939 | Burkin Assay in Myotubes, α7 integrin LacZ reporter signal relative to DMSO ([3]; 5 uM): 1.073 | Burkin Assay in Myotubes, α7 integrin LacZ reporter signal relative to DMSO ([3]; 10 uM): 0.8839 | Burkin Assay in Myotubes, α7 integrin LacZ reporter signal relative to DMSO ([3]; 20 uM): 1.002 | Burkin Assay in Myotubes, α7 integrin LacZ reporter signal relative to DMSO ([3]; 40 uM): 0.7064 | CMV-LACZ in Myotubes, signal relative to DMSO ([4]; 0.5 uM): 1.0248 | CMV-LACZ in Myotubes, signal relative to DMSO ([4]; 1 uM): 0.9638 | CMV-LACZ in Myotubes, signal relative to DMSO ([4]; 5 uM): 1.1285 | CMV-LACZ in Myotubes, signal relative to DMSO ([4]; 10 uM): 1.0939 | CMV-LACZ in Myotubes, signal relative to DMSO ([4]; 20 uM): 1.1189 | CMV-LACZ in Myotubes, signal relative to DMSO ([4]; 40 uM): 1.0579
